From patent publication US8912188B2, “Substituted quinoxaline carboxylic acids for the inhibition of PASK” (BioEnergenix, LLC, priority 2011, dated 2014)

Tests used:
PASK = molecular target: T1, PASK (UniProt #Q96RG2; human recombinant N-terminal GST tagged construct, residues 879-1323) (Homo sapiens, UniProt Q96RG2); experiment: PASK ATP Radiochemical Assay; assay type: biochemical; conditions: 33P-ATP, Myelin Basic Protein substrate, 120 min at room temperature, read-out: IC50 Kinase Domain
T1 construct: human recombinant N-terminal GST tagged construct, residues 879-1323; GST (N); host or cells: insect cells
Description: Biochemical Assay for hPASK Activity
PASK ATP Radiochemical Assay
Test compounds in DMSO are then added and the mixture, followed by delivery of ^33P-ATP (specific activity 0.01 μCi/μl final) to initiate the reaction. […] The entire reaction mixture is washed through onto a P81 Phosphocellulose paper and washed three times for 10 minutes in 75 mM phosphoric acid and once in methanol prior to drying and scintillation counting.

PASK (Invitrogen) = molecular target: T2, PASK (Invitrogen) (Homo sapiens, UniProt Q96RG2); experiment: PAS Kinase FRET Assay; assay type: biochemical; conditions: PAS kinase TR-FRET assay (665 nm/615 nm), 2 hours at 25° C.; read-out: IC50 Kinase Domain
T2 construct: IC50 Kinase Domain; purchased Invitrogen
T2 sequence (Q96RG2 999-1251 limits assumed): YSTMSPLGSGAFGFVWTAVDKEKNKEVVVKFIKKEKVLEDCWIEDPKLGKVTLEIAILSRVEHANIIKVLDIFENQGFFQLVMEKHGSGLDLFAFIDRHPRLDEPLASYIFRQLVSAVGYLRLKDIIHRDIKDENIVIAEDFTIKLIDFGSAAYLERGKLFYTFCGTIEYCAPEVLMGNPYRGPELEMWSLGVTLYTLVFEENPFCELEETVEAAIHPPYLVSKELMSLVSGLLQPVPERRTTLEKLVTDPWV

T1 sequence (Q96RG2 879-1323, stated change not applied): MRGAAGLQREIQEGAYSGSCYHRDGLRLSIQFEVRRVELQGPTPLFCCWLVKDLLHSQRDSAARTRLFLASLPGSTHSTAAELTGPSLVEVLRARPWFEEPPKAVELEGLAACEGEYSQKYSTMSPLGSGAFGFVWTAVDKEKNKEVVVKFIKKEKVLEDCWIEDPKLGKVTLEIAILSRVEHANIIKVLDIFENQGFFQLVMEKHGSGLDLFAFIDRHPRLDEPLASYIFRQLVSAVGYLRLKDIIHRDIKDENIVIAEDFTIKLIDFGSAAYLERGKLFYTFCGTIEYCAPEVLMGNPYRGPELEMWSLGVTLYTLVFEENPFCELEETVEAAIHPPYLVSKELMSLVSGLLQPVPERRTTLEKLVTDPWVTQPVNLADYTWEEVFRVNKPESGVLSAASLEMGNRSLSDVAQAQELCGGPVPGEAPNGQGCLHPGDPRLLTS

| Compound | IC50 (PASK) [µM] | IC50 (PASK (Invitrogen)) [µM] |
| --- | --- | --- |
| Cc1n[nH]c2ccc(-c3nc4ccc(C(=O)O)cc4nc3N(C)C(C)C)cc12 [Example 44, 2-(3-Methyl-M-indazol-5-yl)-3-(isopropyl(methyl)amino)quinoxaline-6-carboxylic acid] | < 10 | < 10 |
| CC(C)N(C)c1nc2cc(C(=O)O)ccc2nc1-c1cc2ccc(F)cc2o1 [Example 45, 2-(6-Fluoro-1-benzofuran-2-yl)-3-[methyl(propan-2-yl)amino]quinoxaline-6-carboxylic acid] | < 10 | < 10 |
| O=C(O)c1ccc2nc(-c3cc4ccc(F)cc4o3)c(N3CCCCCC3)nc2c1 [Example 48, 3-(Azepan-1-yl)-2-(6-fluoro-1-benzofuran-2-yl)quinoxaline-6-carboxylic acid] | < 10 | < 10 |
| O=C(O)c1ccc2nc(-c3ccc4c(c3)OC(F)(F)O4)c(N3CCCCCC3)nc2c1 [Example 51, 3-(Azepan-1-yl)-2-(2,2-difluoro-2H-1,3-benzodioxol-5-yl)quinoxaline-6-carboxylic acid] | < 10 | < 10 |
| CC(C)N(C)c1nc2cc(C(=O)O)ccc2nc1-c1cc(-c2ccccc2)co1 [Example 52, 3-[Methyl(propan-2-yl)amino]-2-(4-phenylfuran-2-yl)quinoxaline-6-carboxylic acid] | < 10 | < 10 |
| C[C@H]1CCCN1c1nc2cc(C(=O)O)ccc2nc1-c1cc2cc(F)ccc2s1 [Example 55, (S)-2-(5-Fluorobenzo[b]thiophen-2-yl)-3-(2-methylpyrrolidin-1-yl)quinoxaline-6-carboxylic acid] | < 10 | < 10 |
| C[C@H]1CCCN1c1nc2cc(C(=O)O)ccc2nc1-c1ccc2scnc2c1 [Example 57, 2-(1,3-Benzothiazol-5-yl)-3-[(2S)-2-methylpyrrolidin-1-yl]quinoxaline-6-carboxylic acid] | < 10 | < 10 |
| CN(c1nc2cc(C(=O)O)ccc2nc1-c1cc2cc(F)ccc2o1)C1CC1 [Example 61, 3-[Cyclopropyl(methyl)amino]-2-(5-fluoro-1-benzofuran-2-yl)quinoxaline-6-carboxylic acid] | < 10 | < 10 |
| CC(C)N(C)c1nc2cc(C(=O)O)ccc2nc1-n1cnc2ccccc21 [Example 63, 2-(1H-Benzo[d]imidazol-1-yl)-3-(isopropyl(methyl)amino)quinoxaline-6-carboxylic acid] | < 10 | < 10 |
| CN(c1nc2cc(C(=O)O)ccc2nc1-c1ccc2[nH]ccc2c1)C1CC1 [Example 64, 3-[Cyclopropyl(methyl)amino]-2-(1H-indol-5-yl)quinoxaline-6-carboxylic acid] | < 10 | < 10 |
| C[C@H]1COCCN1c1nc2cc(C(=O)O)ccc2nc1-c1ccc2[nH]ccc2c1 [Example 66, (S)-2-(1H-Indol-5-yl)-3-(3-methylmorpholino)quinoxaline-6-carboxylic acid] | < 10 | < 10 |
| COC[C@H]1CCCN1c1nc2cc(C(=O)O)ccc2nc1-c1cc2cc(F)ccc2o1 [Example 68, 2-(5-Fluoro-1-benzofuran-2-yl)-3-[(2R)-2-(methoxymethyl)pyrrolidin-1-yl]quinoxaline-6-carboxylic acid] | < 10 | < 10 |
| CC[C@H](C)N(C)c1nc2cc(C(=O)O)ccc2nc1-c1cc2cc(F)ccc2o1 [Example 69, (S)-3-(sec-Butyl(methyl)amino)-2-(5-fluorobenzofuran-2-yl)quinoxaline-6-carboxylic acid] | < 10 | < 10 |
| C[C@H]1CCCCN1c1nc2cc(C(=O)O)ccc2nc1-c1ccc2[nH]ccc2c1 [Example 73, (S)-2-(1H-Indol-5-yl)-3-(2-methylpiperidin-1-yl)quinoxaline-6-carboxylic acid] | < 10 | < 10 |
| CC[C@@H](C)N(C)c1nc2cc(C(=O)O)ccc2nc1-c1cc2cc(F)ccc2o1 [Example 74, (R)-3-(sec-Butyl(methyl)amino)-2-(5-fluorobenzofuran-2-yl)quinoxaline-6-carboxylic acid] | < 10 | < 10 |
| Cc1cc2cc(-c3nc4ccc(C(=O)O)cc4nc3N3CCC[C@@H]3C)ccc2[nH]1 [Example 75, 2-(2-Methyl-1H-indol-5-yl)-3-[(2S)-2-methylpyrrolidin-1-yl]quinoxaline-6-carboxylic acid] | < 10 | < 10 |
| Cc1cc2cc(-c3nc4ccc(C(=O)O)cc4nc3N(C)C(C)C)ccc2[nH]1 [Example 76, 3-[Methyl(propan-2-yl)amino]-2-(2-methyl-M-indol-5-yl)quinoxaline-6-carboxylic acid] | < 10 | < 10 |
| CC(C)N(C)c1nc2cc(C(=O)O)ccc2nc1-c1ccc(-c2ccccc2)o1 [Example 77, 3-[Methyl(propan-2-yl)amino]-2-(5-phenylfuran-2-yl)quinoxaline-6-carboxylic acid] | < 10 | < 10 |
| CC(C)N(C)c1nc2cc(C(=O)O)ccc2nc1-c1cc[nH]c1 [Example 81, 3-[Methyl(propan-2-yl)amino]-2-(1H-pyrrol-3-yl)quinoxaline-6-carboxylic acid] | < 10 | < 10 |
| Cc1coc2ccc(-c3nc4ccc(C(=O)O)cc4nc3N(C)C(C)C)cc12 [Example 85, 3-[Methyl(propan-2-yl)amino]-2-(3-methyl-1-benzofuran-5-yl)quinoxaline-6-carboxylic acid] | < 10 | < 10 |
| Cc1c[nH]c2ccc(-c3nc4ccc(C(=O)O)cc4nc3N(C)C(C)C)cc12 [Example 86, 3-(Isopropyl(methyl)amino)-2-(3-methyl-1H-indol-5-yl)quinoxaline-6-carboxylic acid] | < 10 | < 10 |
| C[C@@H]1CCCN1c1nc2cc(C(=O)O)ccc2nc1-c1ccc2c(c1)OCO2 [Example 87, (R)-2-(Benzo[d][1,3]dioxol-5-yl)-3-(2-methylpyrrolidin-1-yl)quinoxaline-6-carboxylic acid] | < 10 | < 10 |
| Cc1cc2cc(-c3nc4ccc(C(=O)O)cc4nc3N3CCCC[C@@H]3C)ccc2[nH]1 [Example 88, (S)-2-(2-Methyl-1H-indol-5-yl)-3-(2-methylpiperidin-1-yl)quinoxaline-6-carboxylic acid] | < 10 | < 10 |
| Cc1cc2cc(-c3nc4ccc(C(=O)O)cc4nc3N(C)C3CC3)ccc2[nH]1 [Example 89, 3-[Cyclopropyl(methyl)amino]-2-(2-methyl-1H-indol-5-yl)quinoxaline-6-carboxylic acid] | < 10 | < 10 |
| C[C@H]1CCCN1c1nc2cc(C(=O)O)c(O)cc2nc1-c1ccc2[nH]ncc2c1 [Example 93, (S)-7-Hydroxy-2-(1H-indazol-5-yl)-3-(2-methylpyrrolidin-1-yl)quinoxaline-6-carboxylic acid] | < 10 | < 10 |
| CC[C@H](C)N(C)c1nc2cc(C(=O)O)ccc2nc1-c1ccc(F)cc1 [Example 104, (S)-3-(sec-Butyl(methyl)amino)-2-(4-fluorophenyl)quinoxaline-6-carboxylic acid] | < 10 | < 10 |
| O=C(O)c1ccc2nc(-c3ccc(F)cc3)c(N3CCCC[C@@H]3C(F)(F)F)nc2c1 [Example 106, 2-(4-Fluorophenyl)-3-[(2R)-2-(trifluoromethyl)piperidin-1-yl]quinoxaline-6-carboxylic acid] | < 10 | < 10 |
